Activity calls are given as the source filed them.
Columns and labels:
[1] = inhibitors of intracellular T. cruzi replication, confirmation, NIH3T3 host cells, beta-gal luminescence (AID 2044); type: functional, cell-based;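 note: intracellular parasites grown in NIH/3T3 mouse fibroblasts as host cells; luminescent beta-galactosidase reporter signal from transgenic T. cruzi replicating inside host cells; inhibitors lower the luminescence signal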
[2] = cytotoxicity toward NIH3T3 fibroblasts, dose response, counter-screen, cell-based, ATP luminescence, mouse fibroblasts (AID 2010); type: functional;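 note: cells exposed to compound for about 90 hours before reading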
[3] = target: Glyceraldehyde-3-phosphate dehydrogenase (Homo sapiens, UniProt P04406)
Sequence of Glyceraldehyde-3-phosphate dehydrogenase (P04406 whole entry): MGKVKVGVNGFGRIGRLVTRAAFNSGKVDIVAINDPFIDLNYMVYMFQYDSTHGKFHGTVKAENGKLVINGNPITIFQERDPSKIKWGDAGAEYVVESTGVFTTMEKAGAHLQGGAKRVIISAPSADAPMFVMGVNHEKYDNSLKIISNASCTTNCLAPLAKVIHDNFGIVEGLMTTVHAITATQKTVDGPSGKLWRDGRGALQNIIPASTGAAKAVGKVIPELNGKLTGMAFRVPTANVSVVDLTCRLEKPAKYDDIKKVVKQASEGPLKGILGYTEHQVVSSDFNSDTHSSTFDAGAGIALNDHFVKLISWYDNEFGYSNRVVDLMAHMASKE

Bcl-2-related protein A1 [4] = target: T1, Bcl-2-related protein A1 (Mus musculus, UniProt Q07440); assay: Bfl-1 inhibitors blocking BH3 peptide binding, confirmation, biochemical, TR-FRET, mouse Bfl-1 (AID 621);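 note: TR-FRET binding of GST-Bfl-1 to FITC-labelled Bid peptide via terbium antibody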
T1 sequence (Q07440 whole entry): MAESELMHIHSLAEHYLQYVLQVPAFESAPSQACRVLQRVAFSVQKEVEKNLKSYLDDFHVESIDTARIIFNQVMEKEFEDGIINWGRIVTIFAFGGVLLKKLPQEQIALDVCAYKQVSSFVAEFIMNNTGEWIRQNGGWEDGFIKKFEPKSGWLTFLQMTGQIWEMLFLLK

Bcl-2-related protein A1 [5] = target: T1, Bcl-2-related protein A1; assay: Bfl-1 binding inhibitors, SAR follow-up, biochemical, fluorescence polarization (AID 1070)
Ephrin type-A receptor 4 = Ephrin type-A receptor 4 (Mus musculus, UniProt Q03137); assay: inhibitors of EphA4 binding to KYL peptide, primary screen, biochemical, colorimetric, mouse EphA4 (AID 689); type: functional
Sequence of Ephrin type-A receptor 4 (Q03137 whole entry): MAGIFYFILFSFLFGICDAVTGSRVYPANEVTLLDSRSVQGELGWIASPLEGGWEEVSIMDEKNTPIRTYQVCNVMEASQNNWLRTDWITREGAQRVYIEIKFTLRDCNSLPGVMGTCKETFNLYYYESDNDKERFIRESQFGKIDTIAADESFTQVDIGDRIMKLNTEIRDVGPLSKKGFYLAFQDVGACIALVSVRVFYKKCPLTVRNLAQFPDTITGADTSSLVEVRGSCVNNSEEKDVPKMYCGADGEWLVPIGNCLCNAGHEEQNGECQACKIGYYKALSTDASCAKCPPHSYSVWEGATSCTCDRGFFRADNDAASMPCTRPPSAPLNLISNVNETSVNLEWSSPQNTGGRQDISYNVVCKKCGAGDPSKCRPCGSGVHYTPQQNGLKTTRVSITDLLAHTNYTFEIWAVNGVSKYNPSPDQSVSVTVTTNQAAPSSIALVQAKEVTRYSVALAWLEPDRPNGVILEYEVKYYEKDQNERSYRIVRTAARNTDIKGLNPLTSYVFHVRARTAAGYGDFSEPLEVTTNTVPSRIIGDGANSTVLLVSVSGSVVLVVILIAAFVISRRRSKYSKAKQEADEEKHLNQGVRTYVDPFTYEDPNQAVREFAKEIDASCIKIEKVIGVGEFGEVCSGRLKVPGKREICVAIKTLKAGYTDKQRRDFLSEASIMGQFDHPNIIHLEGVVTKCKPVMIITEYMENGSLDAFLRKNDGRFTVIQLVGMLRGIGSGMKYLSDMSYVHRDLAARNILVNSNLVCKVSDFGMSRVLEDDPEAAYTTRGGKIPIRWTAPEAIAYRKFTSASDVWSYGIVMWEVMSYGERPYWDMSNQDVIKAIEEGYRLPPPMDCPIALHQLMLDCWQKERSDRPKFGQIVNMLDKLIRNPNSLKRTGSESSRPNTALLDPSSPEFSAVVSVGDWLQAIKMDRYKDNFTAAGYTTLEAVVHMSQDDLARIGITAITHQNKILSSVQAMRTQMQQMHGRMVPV

Estrogen receptor = target: T2, Estrogen receptor (Homo sapiens, UniProt P03372);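 note: potency for inhibiting coactivator peptide recruitment to the receptor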
T2 sequence (P03372 whole entry): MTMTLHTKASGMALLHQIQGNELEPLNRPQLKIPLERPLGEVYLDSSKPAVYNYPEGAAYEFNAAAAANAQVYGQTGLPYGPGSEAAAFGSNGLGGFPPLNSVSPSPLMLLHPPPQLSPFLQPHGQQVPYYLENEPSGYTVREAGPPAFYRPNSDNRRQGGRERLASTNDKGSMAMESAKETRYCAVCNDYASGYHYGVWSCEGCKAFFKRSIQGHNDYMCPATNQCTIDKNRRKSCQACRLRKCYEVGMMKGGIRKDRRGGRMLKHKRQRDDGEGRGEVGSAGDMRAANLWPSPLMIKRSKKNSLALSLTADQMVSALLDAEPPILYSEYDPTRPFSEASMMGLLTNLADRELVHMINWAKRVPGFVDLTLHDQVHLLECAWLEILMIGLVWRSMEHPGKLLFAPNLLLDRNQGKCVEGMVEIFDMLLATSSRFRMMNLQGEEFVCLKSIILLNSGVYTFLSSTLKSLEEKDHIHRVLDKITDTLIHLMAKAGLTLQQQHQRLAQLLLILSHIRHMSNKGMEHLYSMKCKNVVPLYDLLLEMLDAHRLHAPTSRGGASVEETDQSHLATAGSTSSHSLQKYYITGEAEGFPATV

[6] = target: Sphingosine 1-phosphate receptor 2 (Homo sapiens, UniProt O95136); assay: Dose Response Cell Based Assay for Antagonists of the S1P2 Receptor. [Related pubchem assays: 856, 736 ]; type: functional
Sequence of Sphingosine 1-phosphate receptor 2 (O95136 whole entry): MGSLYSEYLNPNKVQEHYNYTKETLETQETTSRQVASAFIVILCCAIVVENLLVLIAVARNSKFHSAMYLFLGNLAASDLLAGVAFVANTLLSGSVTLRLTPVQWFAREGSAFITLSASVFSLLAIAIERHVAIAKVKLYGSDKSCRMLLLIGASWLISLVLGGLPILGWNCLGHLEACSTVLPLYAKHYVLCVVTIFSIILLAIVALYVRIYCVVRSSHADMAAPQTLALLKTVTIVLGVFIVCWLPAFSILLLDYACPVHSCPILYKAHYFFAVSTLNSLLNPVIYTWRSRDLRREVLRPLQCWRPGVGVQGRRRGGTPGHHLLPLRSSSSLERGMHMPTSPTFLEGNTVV

[7] = target: T3, Heat shock factor protein 1 (Mus musculus, UniProt P38532); assay: inhibition of MG132-induced HSE-luciferase signal, confirmation, cell-based, NIH3T3, luminescence, dose retest (AID 2382); type: functional;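 note: NIH3T3 fibroblasts with HSF1-driven luciferase reporter stressed by proteasome inhibitor MG132; luminescence from HSF1-driven luciferase expression after 8 hours of MG132 stress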
T3 sequence (P38532 whole entry): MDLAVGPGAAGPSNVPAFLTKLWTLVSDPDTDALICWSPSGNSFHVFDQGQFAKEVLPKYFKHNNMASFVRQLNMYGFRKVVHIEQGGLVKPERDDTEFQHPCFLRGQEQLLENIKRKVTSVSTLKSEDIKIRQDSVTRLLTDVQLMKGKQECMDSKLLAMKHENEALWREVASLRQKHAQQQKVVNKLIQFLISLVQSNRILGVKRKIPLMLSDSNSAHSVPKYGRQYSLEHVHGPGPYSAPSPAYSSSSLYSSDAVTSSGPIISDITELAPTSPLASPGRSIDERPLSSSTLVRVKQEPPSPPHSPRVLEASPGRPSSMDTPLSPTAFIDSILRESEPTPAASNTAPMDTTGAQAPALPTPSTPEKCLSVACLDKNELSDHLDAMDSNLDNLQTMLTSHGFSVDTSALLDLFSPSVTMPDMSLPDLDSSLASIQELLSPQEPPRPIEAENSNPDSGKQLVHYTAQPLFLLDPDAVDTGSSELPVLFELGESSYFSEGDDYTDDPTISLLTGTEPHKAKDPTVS

[8] = cytotoxicity in HPDE-C7 cells, cell-based, fluorescence, HTS (AID 430); type: functional; settings: Homo sapiens
[9] = cytotoxicity in KRAS-transformed pancreatic duct cells, primary screen, cell-based, fluorescence, HTS (AID 431); type: functional; settings: Homo sapiens;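 note: cell line used: HPDE-C7K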
CAAX prenyl protease 2 = target: T4, CAAX prenyl protease 2 (Saccharomyces cerevisiae S288c, UniProt Q03530); type: biochemical
T4 sequence (Q03530 whole entry): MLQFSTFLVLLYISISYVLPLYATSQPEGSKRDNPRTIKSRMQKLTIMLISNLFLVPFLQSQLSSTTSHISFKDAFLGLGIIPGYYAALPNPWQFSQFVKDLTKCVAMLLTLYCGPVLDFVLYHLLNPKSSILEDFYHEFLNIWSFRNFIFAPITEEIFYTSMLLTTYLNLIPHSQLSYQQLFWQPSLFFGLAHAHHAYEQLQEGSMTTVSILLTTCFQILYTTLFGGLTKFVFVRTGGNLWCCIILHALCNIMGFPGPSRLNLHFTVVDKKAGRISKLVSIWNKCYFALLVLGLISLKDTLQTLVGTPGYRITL

[10] = Shn3 3'UTR reporter inhibitors, dose response, cell-based, Clone20 osteoblasts, firefly luciferase, cherry-picked (AID 624132); type: functional;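 note: firefly luciferase luminescence from reporter carrying the Shn3 3'UTR in osteoblasts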
[11] = HepG2 cell cytotoxicity, dose response, cytotoxicity control for Shn3 inhibitor project, CellTiter-Glo, cherry-picked (AID 624134); type: functional, cell-based
[12] = control 3'UTR Renilla luciferase suppression, dose response, counter-screen for Shn3 inhibitor project, cell-based, Clone20-Shn3RL, cherry-picked (AID 624133); type: functional

With COc1ccc(C(=O)OC2CCN(C)CC2)cc1 the EC50 [1] was < 0.1 µM (active), the EC50 [2] was > 60 µM (not active) and the EC50 (cells) was 0.077 µM (active).

In the case of NCCN1CCN(C2=C(Cl)C(=O)N(c3ccc(Cl)c(Cl)c3)C2=O)CC1, the IC50 [3] is reported as > 100 µM (not active), the IC50 (Bcl-2-related protein A1 [4]) is reported as > 100 µM (not active) and the IC50 (Bcl-2-related protein A1 [5]) is reported as > 100 µM (not active).

For CC1CCCN(c2nc3ccccc3nc2C(C#N)C(=O)OC2CCCCC2)C1 (centres undefined), the IC50 (Ephrin type-A receptor 4) was 9.81 µM (active).

In the case of Cn1c(SCC(=O)Nc2sccc2C#N)nnc1-c1ccccc1, the IC50 (Estrogen receptor) is reported as 17.1 µM (active).

In the case of CCCC(=O)N1CCN(c2ccc(NC(=O)c3cc4ccccc4o3)cc2Cl)CC1, the IC50 [6] is reported as 4.67 µM (active), the EC50 [7] is reported as 7.51 µM (active) and the EC50 [8] is reported as 7.87 µM (active). The EC50 [9] was 7.44 µM (active), the AC50 (CAAX prenyl protease 2) was 11.5 µM (active) and the AC50 [10] was 4.1 µM (active). For the same compound, the AC50 [11] was 7.37 µM (active) and the AC50 [12] was 8.96 µM (active).

In the case of O=C1C(Cl)=C(N2CCN(c3ccccc3F)CC2)C(=O)N1c1ccc(Cl)c(Cl)c1, the IC50 [3] is reported as > 100 µM (not active), the IC50 (Bcl-2-related protein A1 [4]) is reported as > 100 µM (not active) and the IC50 (Bcl-2-related protein A1 [5]) is reported as > 100 µM (not active).
